Patent publication US10981932B2, “Macrocyclic indole derivatives” (Bayer Aktiengesellschaft, priority 2016, dated 2021)
Read-outs that look alike come from different tables or passages of the source.

Experiments:
[1] = molecular target: MCL-1 (Homo sapiens, UniProt Q07820); assay: Protein-protein interaction assay MCL-1/Noxa BH3 peptide (MCL-1 assay), TR-FRET; type: binding; conditions: MBP-MCL-1 / Noxa BH3-derived peptide, median
Procedure, shortened: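 IC50 came from a 4-parameter fit of the normalized 665/620 nm TR-FRET ratio (anti-MBP Eu-cryptate/streptavidin-XL665). Compounds (0.1 nM–20 μM, duplicates) were preincubated 10 min at 22 °C with 1 nM MBP-MCL-1 in pH 7 Tris/NaCl/KF buffer, then read after 1 h at 22 °C plus overnight at 4 °C.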

[2] = test system: A2780; assay: Anti-proliferative effect (CellTiter-Glo, 72 h), A2780; type: cell-based; conditions: A2780 cells, median, read-out: IC50 antiproliferation assay A2780 [M] (median)
Procedure, shortened: (§1)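 Cells plated and incubated with compounds for 72 h at 37 °C, with a parallel day 0 reference plate for time-zero signal. Viability read by CellTiter-Glo luminescence after 10 min, measured identically on the day 0 and 72 h plates.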

[3] = test system: MV-4-11; assay: Anti-proliferative effect (CellTiter-Glo, 72 h), MV-4-11; type: cell-based; conditions: MV-4-11 cells, median, read-out: IC50 antiproliferation assay MV-4-11 [M] (median)
Procedure: Assessment of the Anti-Proliferative Effect of Compounds in Different Cell Lines
The impact of compounds on the proliferation of different cell lines was assessed using the CellTiter-Glo® Luminescent Cell Viability reagent from Promega (G7573). Of note, SUDHL10 and SUDHL5 (DLBCL), NCI-H929 (Multiple Myeloma), A2780 (ovarian carcinoma) as well as MV-4-11(AML) cells are sensitive to MCL-1 inhibition.
In parallel, cells were plated in a reference (day 0) plate for time zero determination.
Rim wells were excluded. The cells were incubated for 72 h hours in a humidified incubator at 37° C. The day 0 plate was measured by adding 30 μl/well of CTG solution (CellTiter-Glo® Luminescent Cell Viability reagent, Promega G7573) to time zero wells in the reference plate followed by a 10 minutes incubation and luminescence reading at 0.1 ms, using the PHERAstar FS microplate reader (BMG Labtech).
After 72 h incubation, the treated plates were measured in the same way as the day 0 plate mentioned above.

[4] = test system: SUDHL5; assay: Induction of caspase-3/7 activity (Caspase-Glo 3/7), SUDHL5; type: cell-based; conditions: caspase-3/7 induction, SUDHL5 cells, 3 h treatment, median
Procedure, shortened: (§2)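 DLBCL lines SUDHL5 and SUDHL10 treated with compounds for 3 h at 37 °C; caspase-3/7 activity read by Caspase-Glo 3/7 luminescence. Medium-only background subtracted; EC50 fitted with bottom fixed at 1 and top fixed at the reference compound's maximal induction.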

[5] = test system: SUDHL10; assay: Induction of caspase-3/7 activity (Caspase-Glo 3/7), SUDHL10; type: cell-based; conditions: caspase-3/7 induction, SUDHL10 cells, 3 h treatment, median
Procedure, shortened: as §2

[6] = test system: SUDHL5; assay: Induction of cytotoxicity (CellTiter-Glo, 5 h), SUDHL5
[7] = test system: SUDHL10; assay: Induction of cytotoxicity (CellTiter-Glo, 5 h), SUDHL10
[8] = test system: SUDHL5; assay: Anti-proliferative effect (CellTiter-Glo, 72 h), SUDHL5; type: cell-based; conditions: Homo sapiens, SU-DHL-5, 72 h, SUDHL5 cells, antiproliferation, 72 h incubation, median, read-out: Antiproli SUDHL5 [M] (median)
Procedure, shortened: as §1

[9] = test system: SUDHL10; assay: Anti-proliferative effect (CellTiter-Glo, 72 h), SUDHL10; type: cell-based; conditions: Homo sapiens, SU-DHL10, 72 h, SUDHL10 cells, antiproliferation, 72 h incubation, median, read-out: Antiproli SUDHL10 [M] (median)
Procedure, shortened: as §1

[10] = test system: OPM2; assay: Anti-proliferative effect (CellTiter-Glo, 72 h), OPM2; type: cell-based; conditions: Homo sapiens, OPM-2, 72 h, OPM2 cells, median, read-out: IC50 antiproliferation assay OPM2 [M] (median)
Procedure, shortened: as §1

[11] = read-out: Cytotox SUDHL5 [M] (median), SUDHL5 cells, cytotoxicity induction, CellTiter-Glo, 5 h, median
[12] = read-out: Cytotox SUDHL10 [M] (median), SUDHL10 cells, cytotoxicity induction, CellTiter-Glo, 5 h, median
[13] = Homo sapiens, SU-DHL-5, 5 h, read-out: Cytotox SUDHL5 [M] (median), SUDHL5 cells, cytotoxicity induction, CellTiter-Glo, 5 h incubation, median
[14] = Homo sapiens, SU-DHL10, 5 h, read-out: Cytotox SUDHL10 [M] (median), SUDHL10 cells, cytotoxicity induction, CellTiter-Glo, 5 h incubation, median
[15] = Homo sapiens, SU-DHL-5, 5 h, read-out: Cytotox SUDHL5 [M] (median), SUDHL5 cells, cytotoxicity induction, CellTiter-Glo, 5 h, median
[16] = Homo sapiens, SU-DHL10, 5 h, read-out: Cytotox SUDHL10 [M] (median), SUDHL10 cells, cytotoxicity induction, CellTiter-Glo, 5 h, median

Sequence of MCL-1 (Q07820 whole entry): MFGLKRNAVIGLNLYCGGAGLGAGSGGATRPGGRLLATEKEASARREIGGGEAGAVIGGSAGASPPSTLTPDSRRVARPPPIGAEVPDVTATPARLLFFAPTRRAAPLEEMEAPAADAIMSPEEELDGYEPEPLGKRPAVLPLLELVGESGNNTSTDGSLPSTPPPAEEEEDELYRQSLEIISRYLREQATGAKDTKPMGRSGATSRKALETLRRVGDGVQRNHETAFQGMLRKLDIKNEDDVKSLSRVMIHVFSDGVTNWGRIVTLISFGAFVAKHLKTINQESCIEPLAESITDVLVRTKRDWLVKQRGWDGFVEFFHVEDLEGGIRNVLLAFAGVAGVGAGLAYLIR

## CCc1nn(C)c2c1-c1cccc3c(CCCOc4cccc5cc(Cl)ccc45)c(C(=O)O)n(c13)CCCCOC2 (single isomer, unassigned; enantiomer 1) [Example 305, 7-{3-[(6-chloronaphthalen-1-yl)oxy]propyl}-3-ethyl-1-methyl-1,10,11,12,13,15-hexahydropyrazolo[4′,3′:9,10][1,6]oxazacycloundecino[8,7,6-hi]indole-8-carboxylic Acid (Enantiomer 1)]
[1]
  IC50: 5.36 nM
[2]
  IC50: > 3.3e-05 M
[3]; Homo sapiens, MV4-11, 72 h
  IC50: 1.36e-05 M

## Cc1ccc2c(OCCCc3c(C(=O)O)n4c5c(cccc35)-c3c(nn(C)c3C)COCCCC4)cccc2c1 (single isomer, unassigned; enantiomer 2) [Example 309, 2,3-dimethyl-7-{3-[(6-methylnaphthalen-1-yl)oxy]propyl}-2,10,11,12,13,15-hexahydropyrazolo[4′3′:9,10][1,6]oxazacycloundecino[8,7,6-hi]indole-8-carboxylic Acid (Enantiomer 2)]
[1]
  IC50: 133 nM
[4]
  EC50: > 33 µM
[5]
  EC50: > 33 µM
[2]
  IC50: > 3.3e-05 M
[3]
  IC50: > 3.3e-05 M
[6]; [11]
  IC50: > 3.3e-05 M
[7]; [12]
  IC50: > 3.3e-05 M

## Cc1nn(C)c2c1-c1cccc3c(CCCOc4cccc5ccccc45)c(C(=O)O)n(c13)CCCCN(C)C2 (single isomer, unassigned) [Example 239, (−)-1,3,15-trimethyl-7-[3-(naphthalen-1-yloxy)propyl]-1,10,11,12,13,14,15,16-octahydropyrazolo[4′,3′:4,5][1,7]diazacyclododecino[3,2,1-hi]indole-8-carboxylic Acid]
[1]
  IC50: 92.7 nM
[4]; Homo sapiens, SU-DHL-5, 3 h
  EC50: > 33 µM
[5]; Homo sapiens, SU-DHL10, 3 h
  EC50: > 33 µM
[2]; Homo sapiens, A2780, 72 h
  IC50: 2.27e-05 M
[3]; Homo sapiens, MV4-11, 72 h
  IC50: 1.07e-05 M
[6]; [13]
  IC50: > 3.3e-05 M
[7]; [14]
  IC50: 3.03e-05 M

## Cc1c2c(nn1C)COCCCCn1c(C(=O)O)c(CCCOc3cccc4cc(C(F)(F)F)ccc34)c3cccc-2c31 (single isomer, unassigned; enantiomer 1) [Example 311, 2,3-dimethyl-7-(3-{[6-(trifluoromethyl)naphthalen-1-yl]oxy}propyl)-2,10,11,12,13,15-hexahydropyrazolo[4′,3′:9,10][1,6]oxazacycloundecino[8,7,6-hi]indole-8-carboxylic Acid (Enantiomer 1)]
[1]
  IC50: 543 nM
[4]; Homo sapiens, SU-DHL-5, 3 h
  EC50: > 33 µM
[5]; Homo sapiens, SU-DHL10, 3 h
  EC50: > 33 µM
[2]; Homo sapiens, A2780, 72 h
  IC50: 1.11e-05 M
[3]; Homo sapiens, MV4-11, 72 h
  IC50: 1.16e-05 M
[6]; [15]
  IC50: 2.12e-05 M
[7]; [16]
  IC50: 1.49e-05 M

## Cc1c2c(nn1C)COCCCCn1c(C(=O)O)c(CCCOc3cccc4cc(C(F)(F)F)ccc34)c3cccc-2c31 (single isomer, unassigned; enantiomer 2) [Example 312, 2,3-dimethyl-7-(3-{[6-(trifluoromethyl)naphthalen-1-yl]oxy}propyl)-2,10,11,12,13,15-hexahydropyrazolo[4′,3′:9,10][1,6]oxazacycloundecino[8,7,6-hi]indole-8-carboxylic Acid (Enantiomer 2)]
[1]
  IC50: 22 nM
[2]
  IC50: 1.05e-05 M
[3]
  IC50: 1.28e-05 M

## CCc1nn(C)c2c1-c1cccc3c(CCCOc4cccc5cc(C(F)(F)F)ccc45)c(C(=O)O)n(c13)CCCCOC2 (single isomer, unassigned; enantiomer 1) [Example 314, 3-ethyl-1-methyl-7-(3-{[6-(trifluoromethyl)naphthalen-1-yl]oxy}propyl)-1,10,11,12,13,15-hexahydropyrazolo[4′,3′:9,10][1,6]oxazacycloundecino[8,7,6-hi]indole-8-carboxylic Acid (Enantiomer 1)]
[1]
  IC50: 33.5 nM
[4]; Homo sapiens, SU-DHL-5, 3 h
  EC50: > 33 µM
[5]; Homo sapiens, SU-DHL10, 3 h
  EC50: > 33 µM
[2]; Homo sapiens, A2780, 72 h
  IC50: 1.56e-05 M
[3]; Homo sapiens, MV4-11, 72 h
  IC50: 1.35e-05 M
[6]; [15]
  IC50: 1.56e-05 M
[7]; [16]
  IC50: 2.09e-05 M

## CCc1nn(C)c2c1-c1cccc3c(CCCOc4cccc5cc(Cl)ccc45)c(C(=O)O)n(c13)CCCCOC2 (single isomer, unassigned; enantiomer 2) [Example 306, 7-{3-[(6-chloronaphthalen-1-yl)oxypropyl}-3-ethyl-1-methyl-1,10,11,12,13,15-hexahydropyrazolo[4′,3′:9,10](1,6]oxazacycloundecino[8,7,6-hi]indole-8-carboxylic Acid (Enantiomer 2)]
[1]
  IC50: 286 nM
[2]
  IC50: 1.02e-05 M
[3]
  IC50: 1.5e-05 M

## CCc1nn(C)c2c1-c1cccc3c(CCCOc4cccc5cc(C(F)(F)F)ccc45)c(C(=O)O)n(c13)CCCCOC2 (single isomer, unassigned; enantiomer 2) [Example 315, 3-ethyl-1-methyl-7-(3-{[6-(trifluoromethyl)naphthalen-1-yl]oxy}propyl)-1,10,11,12,13,15-hexahydropyrazolo[4′,3′:9,10][1,6]oxazacycloundecino[8,7,6-hi]indole-8-carboxylic Acid (Enantiomer 2)]
[1]
  IC50: 919 nM
[4]
  EC50: > 33 µM
[5]
  EC50: 20.1 µM
[2]
  IC50: 8.63e-06 M
[3]
  IC50: 1.16e-05 M
[6]; [11]
  IC50: 1.48e-05 M
[7]; [12]
  IC50: 1.58e-05 M

## Cc1ccc2c(OCCCc3c(C(=O)O)n4c5c(cccc35)-c3c(nn(C)c3C)COCCCC4)cccc2c1 (single isomer, unassigned; enantiomer 1) [Example 308, 2,3-dimethyl-7-{3-[(6-methylnaphthalen-1-yl)oxy]propyl}-2,10,11,12,13,15-hexahydropyrazolo[4′3′:9,10][1,6]oxazacycloundecino[8,7,6-hi]indole-carboxylic Acid (Enantiomer 1)]
[1]
  IC50: 5.07 nM
[4]
  EC50: 7.18 µM
[5]; Homo sapiens, SU-DHL10, 3 h
  EC50: > 33 µM
[2]; Homo sapiens, A2780, 72 h
  IC50: > 3.3e-05 M
[3]; Homo sapiens, MV4-11, 72 h
  IC50: > 3.3e-05 M
[6]; [11]
  IC50: 5.61e-06 M
[7]; [16]
  IC50: > 3.3e-05 M

## Cc1nn(C)c2c1-c1cccc3c(CCCOc4ccc(F)c5ccccc45)c(C(=O)O)n(c13)CCCCOC2 (racemic) [Example 021, (rac)-7-{3-[(4-fluoronaphthalen-1-yl)oxy]propyl}-1,3-dimethyl-1,10,11,12,13,15-hexahydropyrazolo[4′,3′:9,10][1,6]oxazacycloundecino[8,7,6-hi]indole-8-carboxylic Acid]
[1]
  IC50: 11 nM
[4]; Homo sapiens, SU-DHL-5, 3 h
  EC50: 13.4 µM
[5]; Homo sapiens, SU-DHL10, 3 h
  EC50: > 33 µM
[8]
  IC50: 2.4e-05 M
[9]
  IC50: 5.25e-06 M
[10]
  IC50: > 3.3e-05 M
[2]
  IC50: 2.52e-05 M
[2]; Homo sapiens, A2780, 72 h
  IC50: > 3.3e-05 M
[6]; [13]
  IC50: 1.82e-05 M
[7]; [14]
  IC50: > 3.3e-05 M

## CC(C)OCc1nn(C)c2c1-c1cccc3c(CCCOc4cccc5c4CCCC5)c(C(=O)O)n(c13)CCCCOC2 (racemic) [Example 1-69, (rac)-1-methyl-3-[(propan-2-yloxy)methyl]-7-[3-(5,6,7,8-tetrahydronaphthalen-1-yloxy)propyl]-1,10,11,12,13,15-hexahydropyrazolo[4′,3′:9,10][1,6]oxazacycloundecino[8,7,6-hi]indole-8-carboxylic Acid]
[1]
  IC50: 11.8 nM
[4]; Homo sapiens, SU-DHL-5, 3 h
  EC50: > 33 µM
[5]; Homo sapiens, SU-DHL10, 3 h
  EC50: > 33 µM
[8]
  IC50: > 3.3e-05 M
[9]
  IC50: > 3.3e-05 M
[10]
  IC50: > 3.3e-05 M
[2]; Homo sapiens, A2780, 72 h
  IC50: > 3.3e-05 M
[6]; [13]
  IC50: 2.71e-05 M
[7]; [14]
  IC50: > 3.3e-05 M
